Assay results from ChEMBL document CHEMBL3098111, “Discovery of 2,5-diarylnicotinamides as selective orexin-2 receptor antagonists (2-SORAs)” (Bioorg Med Chem Lett, 2013).

Legend:
[1] = target: C-C chemokine receptor type 5 (Homo sapiens) (UniProt P51681); experiment: Inhibition of human CCR5 at 10 uM relative to control
[2] = target: Somatostatin receptor type 2 (Homo sapiens) (UniProt P30874); experiment: Inhibition of human SST2 receptor at 10 uM relative to control
[3] = target: Glutamate NMDA receptor (Rattus norvegicus) (UniProt P35439+Q00959+Q00960+Q00961+Q62645+Q8VHN2+Q9R1M7); experiment: Inhibition of rat NMDA receptor agonist binding site at 10 uM relative to control; format: protein-complex assay
[4] = target: Melanocortin receptor 5 (Homo sapiens) (UniProt P33032); experiment: Inhibition of human MC5 receptor at 10 uM relative to control
[5] = target: Kappa-type opioid receptor (Homo sapiens) (UniProt P41145); experiment: Inhibition of human kappa opioid receptor at 10 uM relative to control
[6] = target: cGMP-dependent 3',5'-cyclic phosphodiesterase (Homo sapiens) (UniProt O00408); experiment: Inhibition of human PDE2 at 100 uM relative to control
[7] = target: Melanocortin receptor 4 (Homo sapiens) (UniProt P32245); experiment: Inhibition of human MC4 receptor at 10 uM relative to control
[8] = target: Adenosine receptor A2a (Homo sapiens) (UniProt P29274); experiment: Inhibition of human adenosine A2A receptor at 10 uM relative to control
[9] = target: Histamine H4 receptor (Homo sapiens) (UniProt Q9H3N8); experiment: Inhibition of human histamine H4 receptor at 10 uM relative to control
[10] = target: 5-hydroxytryptamine receptor 3A (Homo sapiens) (UniProt P46098); experiment: Inhibition of human 5-HT3 receptor at 10 uM relative to control
[11] = target: Nociceptin receptor (Homo sapiens) (UniProt P41146); experiment: Inhibition of human ORL1 receptor at 10 uM relative to control
[12] = target: Caspase-7 (Homo sapiens) (UniProt P55210); experiment: Inhibition of human caspase 7 at 10 uM relative to control
[13] = species on record: Rattus norvegicus; experiment: Inhibition of rat sodium channel site 2 at 10 uM relative to control

Sequence of Adenosine receptor A2a (Homo sapiens) (P29274 whole entry): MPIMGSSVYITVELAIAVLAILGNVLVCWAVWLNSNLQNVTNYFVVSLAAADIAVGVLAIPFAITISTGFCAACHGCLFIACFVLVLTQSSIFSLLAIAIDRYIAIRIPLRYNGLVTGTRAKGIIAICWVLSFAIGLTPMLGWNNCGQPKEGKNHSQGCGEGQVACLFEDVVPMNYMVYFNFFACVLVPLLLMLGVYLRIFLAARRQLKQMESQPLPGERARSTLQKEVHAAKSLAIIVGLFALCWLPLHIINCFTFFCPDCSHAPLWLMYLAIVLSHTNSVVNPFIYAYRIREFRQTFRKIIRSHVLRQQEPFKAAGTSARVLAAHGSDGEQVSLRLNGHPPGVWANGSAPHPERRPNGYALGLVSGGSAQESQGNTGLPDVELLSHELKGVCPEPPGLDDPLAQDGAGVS
Sequence of Kappa-type opioid receptor (Homo sapiens) (P41145 whole entry): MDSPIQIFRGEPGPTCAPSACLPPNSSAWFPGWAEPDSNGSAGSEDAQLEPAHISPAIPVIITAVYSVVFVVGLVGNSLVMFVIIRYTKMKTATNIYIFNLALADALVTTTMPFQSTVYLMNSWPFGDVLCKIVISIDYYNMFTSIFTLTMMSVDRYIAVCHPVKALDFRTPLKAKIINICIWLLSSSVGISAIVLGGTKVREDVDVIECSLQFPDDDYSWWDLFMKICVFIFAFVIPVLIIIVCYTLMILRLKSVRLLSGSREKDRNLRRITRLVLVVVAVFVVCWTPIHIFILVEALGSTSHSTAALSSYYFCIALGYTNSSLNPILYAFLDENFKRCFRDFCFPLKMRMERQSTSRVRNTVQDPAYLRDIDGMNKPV
Sequence of 5-hydroxytryptamine receptor 3A (Homo sapiens) (P46098 whole entry): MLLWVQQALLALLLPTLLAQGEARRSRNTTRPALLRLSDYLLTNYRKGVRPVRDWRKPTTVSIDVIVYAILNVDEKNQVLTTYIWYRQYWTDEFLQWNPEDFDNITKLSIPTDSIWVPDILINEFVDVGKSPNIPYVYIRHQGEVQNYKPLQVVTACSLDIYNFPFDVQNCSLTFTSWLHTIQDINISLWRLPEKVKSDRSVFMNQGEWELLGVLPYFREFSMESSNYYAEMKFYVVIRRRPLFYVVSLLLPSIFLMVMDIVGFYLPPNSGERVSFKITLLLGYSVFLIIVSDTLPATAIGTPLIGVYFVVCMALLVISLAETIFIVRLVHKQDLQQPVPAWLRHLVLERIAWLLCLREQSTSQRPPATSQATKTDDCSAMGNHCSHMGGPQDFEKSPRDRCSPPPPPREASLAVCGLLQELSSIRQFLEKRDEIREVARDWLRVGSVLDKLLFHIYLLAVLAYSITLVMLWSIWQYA
Sequence of Melanocortin receptor 4 (Homo sapiens) (P32245 whole entry): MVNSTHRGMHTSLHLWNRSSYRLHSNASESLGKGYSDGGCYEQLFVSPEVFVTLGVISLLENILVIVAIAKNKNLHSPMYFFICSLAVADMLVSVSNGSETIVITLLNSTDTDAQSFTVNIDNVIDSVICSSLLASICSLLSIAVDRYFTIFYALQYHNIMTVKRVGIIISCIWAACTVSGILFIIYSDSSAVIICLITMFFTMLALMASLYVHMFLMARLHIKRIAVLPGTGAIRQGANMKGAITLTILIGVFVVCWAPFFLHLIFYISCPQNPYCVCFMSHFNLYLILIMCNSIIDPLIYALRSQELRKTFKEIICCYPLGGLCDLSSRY
Sequence of C-C chemokine receptor type 5 (Homo sapiens) (P51681 whole entry, looked up): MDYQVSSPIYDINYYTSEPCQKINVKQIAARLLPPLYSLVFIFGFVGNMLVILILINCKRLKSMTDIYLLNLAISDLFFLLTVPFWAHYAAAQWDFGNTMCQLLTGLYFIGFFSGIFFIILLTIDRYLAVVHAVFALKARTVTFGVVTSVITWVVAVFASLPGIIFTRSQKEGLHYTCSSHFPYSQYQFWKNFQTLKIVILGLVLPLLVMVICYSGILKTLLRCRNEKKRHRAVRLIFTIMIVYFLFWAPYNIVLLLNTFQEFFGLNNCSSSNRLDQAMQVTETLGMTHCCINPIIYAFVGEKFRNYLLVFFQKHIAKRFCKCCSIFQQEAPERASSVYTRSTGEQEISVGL
Sequence of Somatostatin receptor type 2 (Homo sapiens) (P30874 whole entry): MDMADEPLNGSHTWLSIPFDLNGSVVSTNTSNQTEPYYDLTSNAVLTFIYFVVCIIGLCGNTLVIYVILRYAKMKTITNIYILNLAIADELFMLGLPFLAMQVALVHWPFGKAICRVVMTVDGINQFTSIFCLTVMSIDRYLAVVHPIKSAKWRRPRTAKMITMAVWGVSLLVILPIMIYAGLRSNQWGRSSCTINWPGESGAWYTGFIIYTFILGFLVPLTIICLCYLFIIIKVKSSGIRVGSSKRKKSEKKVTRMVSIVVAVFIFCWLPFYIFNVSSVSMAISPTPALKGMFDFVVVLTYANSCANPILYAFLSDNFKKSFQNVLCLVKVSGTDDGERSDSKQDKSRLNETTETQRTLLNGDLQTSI
Sequence of Melanocortin receptor 5 (Homo sapiens) (P33032 whole entry): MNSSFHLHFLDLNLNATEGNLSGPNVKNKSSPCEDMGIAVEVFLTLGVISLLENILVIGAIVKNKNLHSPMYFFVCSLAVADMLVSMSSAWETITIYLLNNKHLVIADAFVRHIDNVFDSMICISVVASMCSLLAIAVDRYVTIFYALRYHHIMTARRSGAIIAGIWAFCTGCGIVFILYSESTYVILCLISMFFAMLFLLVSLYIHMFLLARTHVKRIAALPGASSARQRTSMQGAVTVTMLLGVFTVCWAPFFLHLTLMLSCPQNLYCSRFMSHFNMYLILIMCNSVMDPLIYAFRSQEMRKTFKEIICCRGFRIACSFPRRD
Sequence of Nociceptin receptor (Homo sapiens) (P41146 whole entry): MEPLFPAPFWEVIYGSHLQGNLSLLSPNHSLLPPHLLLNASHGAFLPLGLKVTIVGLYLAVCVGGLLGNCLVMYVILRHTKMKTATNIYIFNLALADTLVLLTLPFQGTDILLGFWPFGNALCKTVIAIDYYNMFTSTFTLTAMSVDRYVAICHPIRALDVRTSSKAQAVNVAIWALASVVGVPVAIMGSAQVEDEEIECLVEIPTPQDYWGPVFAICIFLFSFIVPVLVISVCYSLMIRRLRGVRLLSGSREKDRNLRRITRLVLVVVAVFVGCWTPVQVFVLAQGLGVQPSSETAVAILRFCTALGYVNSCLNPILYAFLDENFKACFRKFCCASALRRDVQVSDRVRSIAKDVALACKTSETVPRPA
Sequence of Histamine H4 receptor (Homo sapiens) (Q9H3N8 whole entry): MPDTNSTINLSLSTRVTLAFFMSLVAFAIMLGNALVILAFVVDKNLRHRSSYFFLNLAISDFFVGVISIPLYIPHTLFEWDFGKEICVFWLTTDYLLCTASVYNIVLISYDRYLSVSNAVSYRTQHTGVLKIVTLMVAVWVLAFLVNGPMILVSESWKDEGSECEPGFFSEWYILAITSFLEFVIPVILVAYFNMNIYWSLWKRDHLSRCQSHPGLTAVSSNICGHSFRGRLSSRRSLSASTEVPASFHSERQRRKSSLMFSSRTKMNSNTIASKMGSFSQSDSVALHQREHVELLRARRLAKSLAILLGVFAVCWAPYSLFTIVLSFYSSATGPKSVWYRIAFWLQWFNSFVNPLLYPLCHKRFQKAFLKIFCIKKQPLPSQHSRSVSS
Sequence of Caspase-7 (Homo sapiens) (P55210 24-198 limits assumed): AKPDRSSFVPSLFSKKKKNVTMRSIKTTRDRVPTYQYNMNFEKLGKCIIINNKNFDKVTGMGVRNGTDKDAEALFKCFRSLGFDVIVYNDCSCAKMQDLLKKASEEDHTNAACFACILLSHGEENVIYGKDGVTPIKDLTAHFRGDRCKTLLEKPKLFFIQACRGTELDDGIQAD
Sequence of Caspase-7 (Homo sapiens) (P55210 207-303 limits assumed): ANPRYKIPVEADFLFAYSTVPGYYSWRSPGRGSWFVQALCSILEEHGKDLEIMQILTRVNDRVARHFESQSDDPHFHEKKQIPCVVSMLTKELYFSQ
Sequence of cGMP-dependent 3',5'-cyclic phosphodiesterase (Homo sapiens) (O00408 whole entry): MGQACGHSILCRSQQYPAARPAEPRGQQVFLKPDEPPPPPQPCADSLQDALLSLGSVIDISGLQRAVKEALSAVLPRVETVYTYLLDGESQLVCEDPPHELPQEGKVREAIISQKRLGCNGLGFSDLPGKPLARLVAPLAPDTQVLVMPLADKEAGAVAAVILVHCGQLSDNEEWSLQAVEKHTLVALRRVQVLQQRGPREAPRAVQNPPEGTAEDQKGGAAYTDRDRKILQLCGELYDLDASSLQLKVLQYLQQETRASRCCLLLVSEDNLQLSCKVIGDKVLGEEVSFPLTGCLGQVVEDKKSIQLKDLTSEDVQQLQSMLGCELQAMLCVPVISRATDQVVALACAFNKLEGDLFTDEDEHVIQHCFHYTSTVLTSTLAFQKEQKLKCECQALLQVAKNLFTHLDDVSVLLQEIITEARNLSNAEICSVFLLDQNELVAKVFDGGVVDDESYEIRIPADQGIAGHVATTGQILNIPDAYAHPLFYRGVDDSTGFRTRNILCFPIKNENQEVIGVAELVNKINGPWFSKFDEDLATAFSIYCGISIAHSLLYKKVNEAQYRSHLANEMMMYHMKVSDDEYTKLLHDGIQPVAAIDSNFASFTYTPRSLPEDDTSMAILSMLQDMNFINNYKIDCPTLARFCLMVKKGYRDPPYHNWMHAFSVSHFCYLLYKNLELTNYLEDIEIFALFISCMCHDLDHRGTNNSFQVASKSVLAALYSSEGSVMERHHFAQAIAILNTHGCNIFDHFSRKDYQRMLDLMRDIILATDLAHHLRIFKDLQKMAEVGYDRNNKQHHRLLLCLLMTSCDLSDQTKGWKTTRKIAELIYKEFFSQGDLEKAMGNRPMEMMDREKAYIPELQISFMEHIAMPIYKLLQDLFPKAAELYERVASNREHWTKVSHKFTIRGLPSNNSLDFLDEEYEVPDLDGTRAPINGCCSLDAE

**Q.** How did the inhibition [1] turn out when COc1ccc(CNC(=O)c2cc(-c3cc(Cl)cc(Cl)c3)cnc2-c2cccnc2)cc1OC was run?
**A.** 11%

**Q.** What about the inhibition [2] of the same compound?
**A.** -3%

**Q.** And the inhibition [3]?
**A.** 1%

**Q.** And the inhibition [4]?
**A.** 9%

**Q.** What about the inhibition [5] of the same compound?
**A.** 9%

**Q.** And the inhibition [6]?
**A.** 4%

**Q.** And the inhibition [7]?
**A.** 6%

**Q.** And the inhibition [8]?
**A.** 8%

**Q.** What about the inhibition [9] of the same compound?
**A.** 9%

**Q.** And the inhibition [10]?
**A.** -3%

**Q.** What about the inhibition [11] of the same compound?
**A.** 9%

**Q.** What about the inhibition [12] of the same compound?
**A.** 1%

**Q.** And the inhibition [13]?
**A.** 39%
